Assay results published in paper PMC3832525, “A Cell-Free Fluorometric High-Throughput Screen for Inhibitors of Rtt109-Catalyzed Histone Acetylation” (PLoS ONE, 2013).

Assays:
Rtt109-Vps75 complex = molecular target: T1, Rtt109-Vps75 complex (Saccharomyces cerevisiae, UniProt Q07794); experiment: CPM-based fluorometric Rtt109-Vps75 HTS / dose-response assay; type: biochemical, S. cerevisiae
T1 construct: using two full-length physiologically relevant protein complexes; made in house
T1 sequence (Q07794 1-436): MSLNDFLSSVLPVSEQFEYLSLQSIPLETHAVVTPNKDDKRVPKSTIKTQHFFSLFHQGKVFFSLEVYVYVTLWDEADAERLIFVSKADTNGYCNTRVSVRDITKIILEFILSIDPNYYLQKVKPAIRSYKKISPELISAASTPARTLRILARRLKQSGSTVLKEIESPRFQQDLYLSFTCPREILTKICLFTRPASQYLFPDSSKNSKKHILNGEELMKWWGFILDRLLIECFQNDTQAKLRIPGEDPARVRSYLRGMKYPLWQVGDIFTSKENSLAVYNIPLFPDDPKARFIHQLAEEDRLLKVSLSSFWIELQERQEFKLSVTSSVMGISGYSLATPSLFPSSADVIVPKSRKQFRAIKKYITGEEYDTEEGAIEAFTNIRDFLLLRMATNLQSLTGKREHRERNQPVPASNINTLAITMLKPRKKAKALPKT
T1 sequence (P53853 1-264 partner): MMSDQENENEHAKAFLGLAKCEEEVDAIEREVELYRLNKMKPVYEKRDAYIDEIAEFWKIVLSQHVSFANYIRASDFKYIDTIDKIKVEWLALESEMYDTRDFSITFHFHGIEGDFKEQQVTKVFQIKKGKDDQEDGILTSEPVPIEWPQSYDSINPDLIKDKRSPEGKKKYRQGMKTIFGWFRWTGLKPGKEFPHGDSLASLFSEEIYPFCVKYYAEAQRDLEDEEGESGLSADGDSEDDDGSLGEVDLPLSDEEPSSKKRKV
Method: (§1) Compounds selected for dose-response analyses were tested in duplicate at eight compound concentrations, ranging from 40 nM to 125 µM final compound concentrations. Plate controls, dispensing steps and general assay procedures were unchanged from the aforementioned HTS procedures. Slot blots were performed using standard techniques with a Bio-Rad Bio-Dot SF microfiltration apparatus. Membranes were imaged with a LI-COR Odyssey and analyzed using Image Studio (LI-COR Biosciences). For the slot blot experiments, the assay plates included an additional plate control consisting of the Rtt109-Vps75 and Asf1-dH3-H4 complexes and no acetyl-CoA. Dose-response and slot blot experiments were replicated at least three times by independent experiments.

Rtt109 = test system: Rtt109; set-up: method as in PMID 18568037; settings: ref [11]; cited from earlier work
[1] = molecular target: T2, Rtt109-catalyzed histone acetylation (H3K56ac, H3K27ac, H3K9ac) (Saccharomyces cerevisiae, UniProt Q07794); experiment: Orthogonal antibody-based slot blot assay of histone acetylation; type: biochemical, S. cerevisiae; settings: reaction aliquots
T2 construct: using two full-length physiologically relevant protein complexes; made in house
T2 sequence (Q07794 1-436): T1 sequence (Q07794 1-436)
T2 sequence (P53853 1-264 partner): T1 sequence (P53853 1-264 partner)
Method: as §1
This method utilizes modification-specific antibodies to detect changes in the actual histone acetylation, rather than the CoA by-product. […] Equal protein content was verified by Ponceau S staining (Figure 5B).

β-lactamase = settings: 10 µM
Method: Selected compounds were also de-risked for aggregation behavior using published procedures [55], except that the published assay buffer was again swapped for the HTS buffer. Rotterlin and lidocaine were used as a positive and negative compound controls, respectively [56]. Compounds were tested at 10 µM final concentrations in either the presence or absence of 0.01% Triton X-100.

p300 = settings: ref [69], [70]; cited from earlier work
PCAF = settings: ref [69], [70]; cited from earlier work

## O=C(O)C1=CC(=C(c2ccc(O)c(C(=O)O)c2)c2ccc(O)c(C(=O)O)c2)C=CC1=O [ATA, aurintricarboxylic acid]
Rtt109-Vps75 complex; 10 µM final concentration
  signal reduction in HTS compound control wells: 50%

## CC(=O)N[C@@H](CCCCNC(=O)CSCCNC(=O)CCNC(=O)[C@H](O)C(C)(C)COP(=O)(O)OP(=O)(O)OC[C@H]1O[C@@H](n2cnc3c(N)ncnc32)[C@H](O)[C@@H]1OP(=O)(O)O)C(N)=O [Lys-CoA]
Rtt109
  activity versus Rtt109: have not shown activity

## OC(Cn1cncn1)(Cn1cncn1)c1ccc(F)cc1F [fluconazole]
Rtt109-Vps75 complex; dose-response, negative compound control
  activity against Rtt109-catalyzed histone acetylation in the CPM-based assay: but not fluconazole, showed modest activity
[1]
  histone acetylation by slot blot: did not show any measureable decrease

## C=C(C)[C@@H](CC=C(C)C)C[C@@]12C[C@@H](CC=C(C)C)C(C)(C)[C@@](CC=C(C)C)(C(=O)C(C(=O)c3ccc(O)c(O)c3)=C1O)C2=O [garcinol]
[1]; modification-specific antibody
  H3K9ac by slot blot: dose-dependent decreases
  H3K27ac by slot blot: dose-dependent decreases
  H3K56ac by slot blot: dose-dependent decreases
β-lactamase; 0.01% Triton X-100
  inhibition of β-lactamase activity, detergent present: no such inhibition was observed
β-lactamase; absence of detergent
  inhibition of β-lactamase activity, detergent-free: only modest inhibition
p300
  IC50: 7 µM
PCAF
  IC50: […]
